Measurements: patent publication US20050272784A1 (priority 2004, published 2005)

Each molecule was assayed on type III protein secretion system of P. aeruginosa PA103 (ExoU secretion) (assay: Tertiary assay: Type III-dependent secretion of ExoU by P. aeruginosa PA103). Settings: Pseudomonas aeruginosa, ExoU secreted into extracellular medium.
Type: cell-based
Text: Tertiary assay: inhibition of Type III protein secretion of effectors from a Pseudomonas aeruginosa system. Type III protein secretion is used by P. aeruginosa to secrete several essential virulence determinants. One effector of the type III protein secretion system of P. aeruginosa PA103 is the virulence determinants ExoU.
The amount of Type III-dependent secretion of ExoU by P. aeruginosa PA103 can be determined in a cell-based assay by quantification of the 73.9 kDa ExoU protein scereted into the extracellular medium. Such quantitation can be achieved by growing strain PA103 in a deferrated medium in the presence of nitrilotriacetic acid (an inducer of Type III protein secretion in P. aeruginosa) and either in the presence or absence of putative inhibitors. After a prolonged growth period, the cells are sedimented and the supernatants concentrated by ammonium sulfate precipitation. The proteins in the resuspended pellets are separated by electrophoresis on SDS-polyacrylamide gels. After staining gels with Colloidal Blue™, the 73.9 kDa ExoU band is quantitated by scanning through an imager. The effects of inhibitors on the intensity of the ExoU band may be measured relative to that of untreated controls.

Row | Compound | IC50
1 | O=C(NC(Cc1ccc(Cl)cc1)C(=O)O)c1nc(-c2ccc(-c3ccccc3)cc2)nn1-c1ccc(Cl)c(Cl)c1 (stereo not shown) [Compound 69, 2-{[5-Biphenyl-4-yl-2-(3,4-dichlorophenyl)-2H-[1,2,4]triazole-3-carbonyl]amino}-3-(4-chlorophenyl)propionic acid] | 32.4 µM
2 | O=C(N[C@@H](COCc1ccccc1)C(=O)O)c1nc(-c2ccc(Oc3ccccc3)cc2)oc1-c1ccc(Cl)nc1Cl [Compound 37, (S)-3-Benzyloxy-2-{[5-(2,6-dichloropyridin-3-yl)-2-(4-phenoxyphenyl)oxazole-4-carbonyl]amino}propionic acid] | 91.7 µM
3 | O=C(N[C@@H](COCc1ccccc1)C(=O)O)c1nc(-c2ccc(C(F)(F)F)cc2)oc1-c1ccc(-c2ccccc2)cc1 [Compound 63, (S)-3-Benzyloxy-2-{[5-biphenyl-4-yl-2-(4-trifluoromethylphenyl)oxazole-4-carbonyl]amino}propionic acid] | 37.3 µM
4 | O=C(N[C@@H](COCc1ccccc1)C(=O)O)c1nc(-c2ccc(Oc3ccccc3)cc2)oc1-c1ccc(Cl)c(Cl)c1 [Compound 13, (S)-3-Benzyloxy-2-{[5-(3,4-dichlorophenyl)-2-(4-phenoxyphenyl)-oxazole-4-carbonyl]amino}propionic acid] | 19.3 µM
5 | O=C(N[C@@H](CSCc1ccccc1)C(=O)O)c1nc(-c2ccc(C(F)(F)F)cc2)sc1-c1ccc(OCc2ccccc2)cc1 [Compound 7, (R)-2-{[5-(4-Benzyloxyphenyl)-2-(4-trifluoromethylphenyl)thiazole-4-carbonyl]amino}-3-benzylsulfanylpropionic acid] | 54.4 µM
6 | O=C(N[C@@H](CSCc1ccccc1)C(=O)O)c1nc(-c2ccc(C(F)(F)F)cc2)oc1-c1ccc(-c2cccnc2)cc1 [Compound 18, (R)-3-Benzylsulfanyl-2-{[5-(4-pyridin-3-yl-phenyl)-2-(4-trifluoromethylphenyl)-oxazole-4-carbonyl]amino}propionic acid] | 89.1 µM
7 | O=C(N[C@@H](CSCc1ccccc1)C(=O)O)c1nc(-c2ccc(C(F)(F)F)cc2)oc1-c1ccc(-c2ccc(F)cc2)nc1 [Compound 34, (R)-3-Benzylsulfanyl-2-{[5-[6-(4-fluorophenyl)pyridin-3-yl]-2-(4-trifluoromethylphenyl)oxazole-4-carbonyl]amino}propionic acid] | 47.4 µM
8 | O=C(N[C@H](COCc1ccccc1)C(=O)O)c1nc(-c2ccc(C(F)(F)F)cc2)oc1-c1ccc(-c2ccccc2)cc1 [Compound 72, (R)-3-Benzyloxy-2-{[5-biphenyl-4-yl-2-(4-trifluoromethylphenyl)oxazole-4-carbonyl]amino}propionic acid] | 54.8 µM
9 | Cc1nc(-c2ccc(-c3oc(-c4ccc(C(F)(F)F)cc4)nc3C(=O)N[C@@H](COCc3ccccc3)C(=O)O)cc2)no1 [Compound 66, (S)-3-Benzyloxy-2-{[5-[4-(5-methyl[1,2,4]oxadiazol-3-yl)phenyl]-2-(4-trifluoromethylphenyl)oxazole-4-carbonyl]amino}propionic acid] | 12.5 µM
10 | O=C(N[C@@H](CSCc1ccccc1)C(=O)O)c1nc(-c2ccc(-c3ccccc3)cc2)oc1-c1cnc(Cl)c(Cl)c1 [Compound 43, (R)-3-Benzylsulfanyl-2-{[2-biphenyl-4-yl-5-(5,6-dichloropyridin-3-yl)oxazole-4-carbonyl]amino}propionic acid] | 45.7 µM
11 | O=C(N[C@@H](COCc1ccccc1)C(=O)O)c1nc(-c2ccc(-c3ccsc3)cc2)oc1-c1ccc(Cl)c(Cl)c1 [Compound 52, (S)-3-Benzyloxy-2-{[5-(3,4-dichlorophenyl)-2-(4-thien-3-yl-phenyl)oxazole-4-carbonyl]amino}propionic acid] | 56.4 µM
12 | O=C(N[C@@H](CSCc1ccccc1)C(=O)O)c1nc(-c2ccc(C(F)(F)F)cc2)oc1C1CCN(c2nccc(C(F)(F)F)n2)CC1 [Compound 57, (R)-3-Benzylsulfanyl-2-({2-(4-trifluoromethylphenyl)-5-[1-(4-trifluoromethylpyrimidin-2-yl)piperidin-4-yl]oxazole-4-carbonyl}amino)propionic acid] | 50 µM
13 | O=C(N[C@@H](COCc1ccccc1)C(=O)O)c1nc(-c2ccc(C(F)(F)F)cc2)oc1-c1cc2ccccc2o1 [Compound 35, (S)-2-{[5-Benzofuran-2-yl-2-(4-trifluoromethylphenyl)oxazole-4-carbonyl]amino}-3-benzyloxypropionic acid] | 79.8 µM
14 | O=C(N[C@@H](COCc1ccccc1)C(=O)O)c1nc(-c2ccc(-c3ccccc3)cc2)oc1-c1cccc(C(F)(F)F)c1 [Compound 62, (S)-3-Benzyloxy-2-{[2-biphenyl-4-yl-5-(3-trifluoromethylphenyl)oxazole-4-carbonyl]amino}propionic acid] | 50.5 µM
15 | O=C(N[C@@H](COCc1ccccc1)C(=O)O)c1nc(-c2ccc(-c3ccccc3)cc2)nn1-c1ccc(Cl)c(Cl)c1 [Compound 68, (S)-3-Benzyloxy-2-{[5-biphenyl-4-yl-2-(3,4-dichlorophenyl)-2H-[1,2,4]triazole-3-carbonyl]amino}propionic acid] | 39.2 µM
16 | O=C(N[C@H](Cc1ccc(Cl)cc1)C(=O)O)c1nc(-c2ccc(-c3ccccc3)cc2)nn1-c1cccc(C(F)(F)F)c1 [Compound 4, (R)-2-{[5-Biphenyl-4-yl-2-(3-trifluoromethylphenyl)-2H-[1,2,4]triazole-3-carbonyl]amino}-3-(4-chlorophenyl)propionic acid] | 56.6 µM
17 | Cc1nc(-c2ccc(-c3oc(-c4ccc(C(F)(F)F)cc4)nc3C(=O)N[C@@H](CSCc3ccccc3)C(=O)O)cc2)no1 [Compound 51, (R)-3-Benzylsulfanyl-2-{[5-[4-(5-methyl[1,2,4]oxadiazol-3-yl)phenyl]-2-(4-trifluoromethylphenyl)oxazole-4-carbonyl]amino}propionic acid] | 19.5 µM
18 | O=C(N[C@@H](CSCc1ccccc1)C(=O)O)c1nc(-c2ccc(C(F)(F)F)cc2)oc1-c1ccc(OCc2ccccc2)cc1 [Compound 17, (R)-2-{[5-(4-Benzyloxyphenyl)-2-(4-trifluoromethylphenyl)oxazole-4-carbony]amino}-3-benzylsulfanylpropionic acid] | 34.3 µM
19 | O=C(N[C@@H](C[S+]([O-])Cc1ccccc1)C(=O)O)c1nc(-c2ccc(-c3ccccc3)cc2)nn1-c1ccc(Cl)c(Cl)c1 (stereo partly drawn) [Compound 70, (R)-2-{[5-Biphenyl-4-yl-2-(3,4-dichlorophenyl)-2H-[1,2,4]triazole-3-carbonyl]amino}-3-phenylmethanesulfinylpropionic acid] | 25.5 µM
20 | O=C(NC(Cc1ccc(Cl)cc1)C(=O)O)c1nc(-c2ccc(-c3ccccc3)cc2)oc1-c1cnc(Cl)c(Cl)c1 (stereo not shown) [Compound 45, 2-{[2-Biphenyl-4-yl-5-(5,6-dichloropyridin-3-yl)oxazole-4-carbonyl]amino}-3-(4-chlorophenyl)propionic acid] | 51.8 µM
21 | O=C(N[C@@H](COCc1ccccc1)C(=O)O)c1nc(-c2ccc(C(F)(F)F)cc2)oc1-c1cnc2ccccc2n1 [Compound 53, (S)-3-Benzyloxy-2-{[5-quinoxalin-2-yl-2-(4-trifluoromethylphenyl)oxazole-4-carbonyl]amino}propionic acid] | 64.6 µM
22 | O=C(NC(Cc1ccc(Cl)cc1)C(=O)O)c1[nH]c(-c2ccc(-c3ccccc3)cc2)nc1-c1cccc(C(F)(F)F)c1 (stereo not shown) [Compound 3, 2-{[2-Biphenyl-4-yl-5-(3-trifluoromethylphenyl)-3H-imidazole-4-carbonyl]amino}-3-(4-chlorophenyl)propionic acid] | 20.6 µM
